# Measured values taken from paper PMC9661476 (Journal of Medicinal Chemistry, 2022).
# Like-named read-outs stand apart in the source and are kept apart here.
# Assays:
# [1] = Aqueous solubility measurement; type: physicochemical; conditions: for solubility: distilled or deionized water; for solubility, single assay: water
# Experimental: Then, distilled or deionized water was added under gentle agitation until total dissolution. All the experiments were performed in triplicate.
# plasmatic TTR = conditions: Phase IIa, FAP patients; cited from earlier work
# [2] = assays 1-3 of triplicate, read-out: solubility, single assay
# [3] = average of triplicate, read-out: solubility, average
melting point,Compound,"solubility [1, 2]","solubility [1, 3]","solubility, single assay ([1]; assays 1-3 of triplicate)",Adverse events (plasmatic TTR)
135 to 137 °C,"O=C(c1cc(F)cc(F)c1)c1cc(O)c(O)c([N+](=O)[O-])c1 [Compound M-21, (3,5-Difluorophenyl)-(3,4-dihydroxy-5-nitrophenyl)methanone]",–,–,–,–
–,"O=C(c1cc(O)cc(F)c1)c1cc(O)c(O)c([N+](=O)[O-])c1 [Compound M-23, (3,4-Dihydroxy-5-nitrophenyl)-(3-fluoro-5-hydroxyphenyl)methanone]",44 µg/mL,45 µg/mL,0.045 mg/mL,–
182 to 184 °C,"O=C(c1cc(Cl)cc(Cl)c1)c1cc(O)c(O)c([N+](=O)[O-])c1 [Compound M-20, (3,5-Dichlorophenyl)-(3,4-dihydroxy-5-nitrophenyl)methanone]",–,–,–,–
–,"Cc1ccc(C(=O)c2cc(O)c(O)c([N+](=O)[O-])c2)cc1 [tolcapone, 3,4-dihydroxy-4′-methyl-5-nitrobenzophenone, reference compound]",56 µg/mL,56 µg/mL,0.055 mg/mL,no adverse events were registered
68 to 71 °C,"O=C(c1ccc(C(F)(F)F)cc1)c1cc(O)c(O)c([N+](=O)[O-])c1 [Compound M-14, (3,4-Dihydroxy-5-nitrophenyl)-[4-(trifluoromethyl)phenyl]methanone]",–,–,–,–
